Several values for one entry are separate records, joined by “and”; a condition that tells them apart may be missing. Equal values may be shown once. Inconclusive results and toxic doses are left out.
System: L1210 leukemia ip in BDF1 mice, survival T/C
Test: NCI In Vivo Anticancer Drug Screen. Data for tumor model L1210 Leukemia (intraperitoneal) in B6D2F1 (BDF1) mice
Settings: endpoint: mean survival time, higher = longer survival
In short: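 Transplantable tumor model; survival measured in treated vs vehicle control mice. Value = treated/control.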

[1] = dose: 100.0 mg/kg/injection, schedule: Q01DX009 (ip), vehicle: saline
[2] = dose: 100.0 mg/kg/injection, schedule: Q04DX003 (ip), vehicle: saline
[3] = dose: 200.0 mg/kg/injection, schedule: Q01DX009 (ip), vehicle: saline
[4] = dose: 200.0 mg/kg/injection, schedule: Q04DX003 (ip), vehicle: saline
[5] = dose: 400.0 mg/kg/injection, schedule: Q04DX003 (ip), vehicle: saline
[6] = dose: 50.0 mg/kg/injection, schedule: Q01DX001 (ip), vehicle: carboxymethylcellulose (CMC)
[7] = dose: 100.0 mg/kg/injection, schedule: Q01DX001 (ip), vehicle: carboxymethylcellulose (CMC)
[8] = dose: 200.0 mg/kg/injection, schedule: Q01DX001 (ip), vehicle: carboxymethylcellulose (CMC)
[9] = dose: 400.0 mg/kg/injection, schedule: Q01DX001 (ip), vehicle: carboxymethylcellulose (CMC)
[10] = dose: 25.0 mg/kg/injection, schedule: Q04DX002 (ip), vehicle: saline with Tween-80
[11] = dose: 50.0 mg/kg/injection, schedule: Q04DX002 (ip), vehicle: saline with Tween-80
[12] = dose: 100.0 mg/kg/injection, schedule: Q04DX002 (ip), vehicle: saline with Tween-80
[13] = dose: 100.0 mg/kg/injection, schedule: Q01DX001 (ip), vehicle: saline
[14] = dose: 200.0 mg/kg/injection, schedule: Q01DX001 (ip), vehicle: saline
[15] = dose: 400.0 mg/kg/injection, schedule: Q01DX001 (ip), vehicle: saline
[16] = dose: 50.0 mg/kg/injection, schedule: Q01DX001 (ip), vehicle: saline
[17] = dose: 50.0 mg/kg/injection, schedule: Q01DX009 (ip), vehicle: water
[18] = dose: 100.0 mg/kg/injection, schedule: Q01DX009 (ip), vehicle: water
[19] = dose: 100.0 mg/kg/injection, schedule: Q04DX002 (ip), vehicle: Klucel (hydroxypropylcellulose) (HPC)
[20] = dose: 400.0 mg/kg/injection, schedule: Q04DX002 (ip), vehicle: Klucel (hydroxypropylcellulose) (HPC)
[21] = dose: 100.0 mg/kg/injection, schedule: Q04DX003 (ip), vehicle: saline with Tween-80
[22] = dose: 200.0 mg/kg/injection, schedule: Q04DX003 (ip), vehicle: saline with Tween-80
[23] = dose: 400.0 mg/kg/injection, schedule: Q04DX003 (ip), vehicle: saline with Tween-80
[24] = dose: 100.0 mg/kg/injection, schedule: Q01DX001 (ip), vehicle: saline with Tween-80
[25] = dose: 200.0 mg/kg/injection, schedule: Q01DX001 (ip), vehicle: saline with Tween-80
[26] = dose: 400.0 mg/kg/injection, schedule: Q01DX001 (ip), vehicle: saline with Tween-80

`Cc1cc(C)c(B(O)O)c(C)c1` was tested, and the T/C [1] was 100 % of control, the T/C [2] was 105 % of control and the T/C [3] was 96 % of control. For the same molecule, the T/C [4] was 100 % of control, the T/C (dose: 400.0 mg/kg/injection, schedule: Q01DX009 (ip), vehicle: saline) was 103 % of control and the T/C [5] was 102 % of control.

With `O=C(O)c1ccc(OCCOc2ccccc2)c(Cl)c1` the T/C (dose: 100.0 mg/kg/injection, schedule: Q01DX009 (ip), vehicle: gum acacia) was 97 % of control, the T/C (dose: 200.0 mg/kg/injection, schedule: Q01DX009 (ip), vehicle: gum acacia) was 88 % of control and the T/C (dose: 400.0 mg/kg/injection, schedule: Q01DX009 (ip), vehicle: gum acacia) was 92 % of control.

`CSCCC1NC(=O)C(/C(C)=N\NC(N)=O)=C1O` (configuration not stated) was tested, and the T/C [6] was 101 % of control, the T/C [7] was 103 % of control and the T/C [8] was 103 % of control. For the same molecule, the T/C [9] was 101 % of control.

With `O=C(CCN1CCCC1)c1ccc2ccccc2c1` the T/C [10] was 97 % of control, the T/C [11] was 97 % of control and the T/C [12] was 100 % of control and 86 % of control.

`CC(=O)NC1C(=O)NS(=O)(=O)C1c1ccccc1` (configuration not stated) was tested, and the T/C (dose: 50.0 mg/kg/injection, schedule: Q01DX009 (ip), vehicle: saline) was 96 % of control and 97 % of control, the T/C [13] was 104 % of control and 92 % of control and the T/C [1] was 97 % of control and 94 % of control. The T/C [14] was 92 % of control, the T/C [3] was 94 % of control and 91 % of control and the T/C [15] was 92 % of control.

In the case of `O=C(ON=C1C=CC(=NOC(=O)c2ccccc2)C=C1)c1ccccc1`, the T/C [13] is reported as 97 % of control, the T/C [14] is reported as 102 % of control and the T/C [15] is reported as 91 % of control.

With `CC(C)(C)C1CCC2(CC1)CCN(CCCN1CCCCCC1)CC2` the T/C [16] was 96 % of control and the T/C [13] was 107 % of control.

In the case of `CC([NH-])C(=O)O.CC([NH-])C(=O)O.CC([NH-])C(=O)O.[Co+3]` (configuration not stated), the T/C [10] is reported as 115 % of control, the T/C [17] is reported as 103 % of control and the T/C [11] is reported as 98 % of control. The T/C [18] was 118 % of control and the T/C [12] was 115 % of control.

`CCOP(N)(=O)SCC` (configuration not stated) was tested, and the T/C (dose: 5.0 mg/kg/injection, schedule: Q01DX001 (ip), vehicle: saline) was 110 % of control.

In the case of `O=C(NCCN1CC1)C(=O)NCCN1CC1`, the T/C (dose: 1.7 mg/kg/injection, schedule: Q04DX003 (ip), vehicle: Klucel (hydroxypropylcellulose) (HPC)) is reported as 173 % of control, the T/C (dose: 2.6 mg/kg/injection, schedule: Q04DX003 (ip), vehicle: Klucel (hydroxypropylcellulose) (HPC)) is reported as 153 % of control and 186 % of control and the T/C (dose: 3.12 mg/kg/injection, schedule: Q04DX003 (ip), vehicle: Klucel (hydroxypropylcellulose) (HPC)) is reported as 187 % of control. For the same molecule, the T/C (dose: 3.12 mg/kg/injection, schedule: Q04DX003 (ip), vehicle: saline with Tween-80) was 179 % of control, the T/C (dose: 4.0 mg/kg/injection, schedule: Q04DX003 (ip), vehicle: Klucel (hydroxypropylcellulose) (HPC)) was 207 % of control and the T/C (dose: 6.0 mg/kg/injection, schedule: Q04DX003 (ip), vehicle: Klucel (hydroxypropylcellulose) (HPC)) was 95 % of control. For the same molecule, the T/C (dose: 6.25 mg/kg/injection, schedule: Q04DX003 (ip), vehicle: Klucel (hydroxypropylcellulose) (HPC)) was 258 % of control and the T/C (dose: 12.5 mg/kg/injection, schedule: Q04DX003 (ip), vehicle: Klucel (hydroxypropylcellulose) (HPC)) was 122 % of control.

With `O=C1OC(c2cccc(Cl)c2)=N/C1=C\c1ccccc1` the T/C [19] was 98 % of control and the T/C [20] was 104 % of control.

In the case of `NC(C(=O)O)c1ccc(F)cc1` (configuration not stated), the T/C [16] is reported as 104 % of control, the T/C [13] is reported as 104 % of control and the T/C [14] is reported as 101 % of control.

For `O=C1c2cc(Cl)ccc2-c2c(Cl)cc(Cl)cc21`, the T/C (dose: 100.0 mg/kg/injection, schedule: Q01DX001 (ip), vehicle: acetone) was 89 % of control, the T/C [2] was 87 % of control and the T/C (dose: 200.0 mg/kg/injection, schedule: Q01DX001 (ip), vehicle: acetone) was 89 % of control. The T/C [4] was 96 % of control, the T/C (dose: 400.0 mg/kg/injection, schedule: Q01DX001 (ip), vehicle: acetone) was 95 % of control and the T/C [5] was 86 % of control.

For `CC(=O)N1C(=O)/C(=C\c2cc3c(cc2Br)OCO3)c2cc3c(cc21)OCO3`, the T/C [16] was 118 % of control, the T/C [13] was 100 % of control and the T/C [14] was 106 % of control. For the same molecule, the T/C [15] was 106 % of control.

With `c1ccc2c(c1)[nH]c1c2c[n+]2c3c(cccc13)CCC2` the T/C (dose: 3.13 mg/kg/injection, schedule: Q01DX009 (ip), vehicle: saline) was 105 % of control, the T/C (dose: 6.25 mg/kg/injection, schedule: Q01DX009 (ip), vehicle: saline) was 105 % of control and the T/C (dose: 12.5 mg/kg/injection, schedule: Q01DX009 (ip), vehicle: saline) was 105 % of control.

`NC(CS(=O)c1ccc([N+](=O)[O-])cc1Cl)C(=O)O` (configuration not stated) was tested, and the T/C [21] was 103 % of control, the T/C [22] was 95 % of control and the T/C [23] was 101 % of control.

`NOC(=O)c1ccccc1` was tested, and the T/C (dose: 100.0 mg/kg/injection, schedule: Q04DX002 (ip), vehicle: saline) was 105 % of control and the T/C (dose: 200.0 mg/kg/injection, schedule: Q04DX002 (ip), vehicle: saline) was 102 % of control.

With `O=C(Nc1cccc([N+](=O)[O-])c1)c1ccc(Cl)cc1Cl` the T/C [21] was 102 % of control, the T/C [22] was 93 % of control and the T/C [23] was 98 % of control.

`CCCCCCCC/C=C\CCCCCCCC(=O)OCC` was tested, and the T/C [24] was 98 % of control, the T/C [25] was 107 % of control and the T/C [26] was 95 % of control.

With `CC1(CO)CC2CCC1C2` (configuration not stated) the T/C (dose: 100.0 mg/kg/injection, schedule: Q04DX003 (ip), vehicle: Klucel (hydroxypropylcellulose) (HPC)) was 104 % of control, the T/C (dose: 200.0 mg/kg/injection, schedule: Q04DX003 (ip), vehicle: Klucel (hydroxypropylcellulose) (HPC)) was 108 % of control and the T/C (dose: 400.0 mg/kg/injection, schedule: Q04DX003 (ip), vehicle: Klucel (hydroxypropylcellulose) (HPC)) was 106 % of control.

`NC(=O)NOC(=O)c1ccccc1` was tested, and the T/C (dose: 50.0 mg/kg/injection, schedule: Q01DX Z (ip), vehicle: other) was 103 % of control, the T/C (dose: 100.0 mg/kg/injection, schedule: Q01DX Z (ip), vehicle: other) was 103 % of control and the T/C (dose: 450.0 mg/kg/injection, schedule: Q01DX Z (ip), vehicle: other) was 111 % of control. For the same molecule, the T/C (dose: 600.0 mg/kg/injection, schedule: Q01DX Z (ip), vehicle: other) was 112 % of control.

In the case of `CCOC(=O)C(O)c1cccc(OC)c1` (configuration not stated), the T/C (dose: 100.0 mg/kg/injection, schedule: Q01DX009 (ip), vehicle: saline sonified) is reported as 92 % of control, the T/C (dose: 100.0 mg/kg/injection, schedule: Q04DX003 (ip), vehicle: saline sonified) is reported as 97 % of control and the T/C (dose: 200.0 mg/kg/injection, schedule: Q04DX003 (ip), vehicle: saline sonified) is reported as 94 % of control. For the same molecule, the T/C (dose: 400.0 mg/kg/injection, schedule: Q01DX009 (ip), vehicle: saline sonified) was 89 % of control and the T/C (dose: 400.0 mg/kg/injection, schedule: Q04DX003 (ip), vehicle: saline sonified) was 103 % of control.

`CCCCCCCCCCCCS` was tested, and the T/C [7] was 103 % of control, the T/C [8] was 105 % of control and the T/C [9] was 103 % of control.

In the case of `COC(=O)C(=O)CC(=O)c1ccc(Cl)cc1`, the T/C [19] is reported as 100 % of control, the T/C (dose: 200.0 mg/kg/injection, schedule: Q04DX002 (ip), vehicle: Klucel (hydroxypropylcellulose) (HPC)) is reported as 106 % of control and the T/C [20] is reported as 95 % of control.

With `O=[N+]([O-])c1ccc(N2CCCC2)nc1` the T/C [24] was 107 % of control, the T/C [25] was 93 % of control and the T/C [26] was 100 % of control.

For `O=C1C2=C(C(=O)c3ccccc31)C1C=CC2CC1`, the T/C [6] was 111 % of control and the T/C [7] was 101 % of control.

For `O=Cc1ccc(/C=C2\NC(=O)NC2=O)cc1`, the T/C (dose: 25.0 mg/kg/injection, schedule: Q01DX009 (ip), vehicle: water) was 90 % of control, the T/C [17] was 92 % of control and the T/C [18] was 96 % of control. For the same molecule, the T/C (dose: 200.0 mg/kg/injection, schedule: Q01DX009 (ip), vehicle: water) was 93 % of control.
